Earlier results as cited in patent US20130244874A1, “Waterless Composition Comprising Pesticide and Copolymers with Sulfonic Acid Groups” (BASF SE, priority 2010, published 2013).
In brackets after ≈: the same amount, converted by molar mass.

Compound | miscibility with water (solvent) | further results
O=C1CCCO1 [Solvent G, gamma-butyrolactone] | infinitely miscible with water | 
Cn1cc(C(=O)Nc2ccccc2-c2cc(F)c(F)c(F)c2)c(C(F)F)n1 [Fluxapyroxad, reference compound] |  | solubility in water (20° C.): 3.8 µg/mL (≈ 9.97 µM)
C[S+](C)[O-] [Solvent E, DMSO] | infinitely miscible with water | 
CC(C)CCCCCCOC(=O)C1CCCCC1C(=O)OCCCCCCC(C)C (stereo not shown) [Solvent C, Diisononyl 1,2-cyclohexanedicarboxylate] |  | water-soluble (solvent, temperature not given): < 0.02 mg/L
